# Experimental data reported in article PMC3320797 (Chemical biology & drug design, 2010).
# Entries after “also recorded” stand apart in the source; their conditions may differ. Where two headings read alike, the source gives them in different places.
# Columns and labels:
# [1] = Aqueous solubility; assay type: physicochemical; details: aqueous solution
# [2] = biological target: T1, HIV-1 RT DNA polymerase (Human immunodeficiency virus type 1 group M subtype B, UniProt P04585); assay: RT RNA-dependent DNA polymerase activity assay; assay type: biochemical; details: read-out: Inhibition of RT DNA polymerase activity (IC50)
# [3] = biological target: T2, p15-EC RNH fragment (Human immunodeficiency virus type 1 group M subtype B, UniProt P04585, DELINS1094-1102[…]); assay: RNH activity of p15-EC RNH domain fragment, rapid fluorescence assay; assay type: biochemical, HIV-1 / Escherichia coli chimera; details: for IC50: read-out: Inhibition of the p15-EC RNH fragment (IC50), 2 mM Mn2+
# [4] = biological target: p15-EC RNH domain fragment (Human immunodeficiency virus type 1 group M subtype B, UniProt P04585, DELINS1094-1102[…]); assay: NMR 1H-15N HSQC chemical shift titration, dissociation constant; assay type: binding, HIV-1 / Escherichia coli chimera; details: read-out: Inhibitor dissociation constant, KD
# [5] = biological target: T1, HIV-1 RT DNA polymerase; details: read-out: Inhibition of RT DNA polymerase activity (IC50); ref [20]; cited from earlier work
# [6] = biological target: T2, p15-EC RNH fragment; details: read-out: Inhibition of the p15-EC RNH fragment (IC50); ref [20]; cited from earlier work
# [7] = test system: HIV-1; details: ref [21], [22]; cited from earlier work
smiles,measurement,setting,value
O=C(O)c1ccc(-c2cccc(/C=N/NC(=O)c3ccc(O)c(O)c3)c2)cc1 [BHMP03],Aqueous solubility relative to DHBNH,[1],more soluble in aqueous solution than the naphthyl-based DHBNH
same,IC50,[2],> 50 µM
same,Ratio of p15-EC RNH IC50 relative to BHMP07,[3]; IC50 of BHMP03 versus BHMP07,more than 50 times
same,IC50,[3],> 50 µM
O=C(O)c1ccc(-c2cccc(/C=N/NC(=O)c3cc(O)c(O)c(O)c3)c2)cc1 [BHMP07],Aqueous solubility relative to DHBNH,[1],higher aqueous solubility than DHBNH; also recorded: more soluble in aqueous solution than the naphthyl-based DHBNH
same,Solubility at the levels used in the NMR studies,"[1]; inhibitor up to 0.8 mM, overnight incubation",not likely completely soluble in aqueous solution
same,IC50,[2],0.3 ± 0.2 µM
same,IC50,[3],0.8 ± 0.06 µM
same,Kd,"[4]; residue A76 (502), + 20 mM Mg2+",311 ± 41.5 µM
same,Kd,"[4]; residue A76 (502), no Mg2+",192 ± 28.9 µM
same,Kd,"[4]; residue I79 (505), + 20 mM Mg2+",372 ± 60.2 µM
same,Kd,"[4]; residue I79 (505), no Mg2+",212 ± 20.1 µM
same,Kd,"[4]; residue I114 (526), + 20 mM Mg2+",321 ± 26.2 µM
same,Kd,"[4]; residue I114 (526), no Mg2+",217 ± 38.4 µM
same,Kd,"[4]; residue K93, + 20 mM Mg2+",454 ± 151 µM
same,Kd,"[4]; residue K93, no Mg2+",194 ± 18.3 µM
same,Kd,"[4]; residue Q74 (500), + 20 mM Mg2+",246 ± 72.8 µM
same,Kd,"[4]; residue V124 (536), no Mg2+",242 ± 18.2 µM
same,Kd,"[4]; residue Y75 (501), + 20 mM Mg2+",262 ± 135 µM
"COc1ccc2ccccc2c1/C=N/NC(=O)c1ccc(O)c(O)c1 [DHBNH, dihydroxy benzoyl naphthyl hydrazone]",IC50,[5],> 25 µM
same,IC50,[6],18.5 ± 3.4 µM
CC(C)c1ccc(O)c(=O)c(O)c1 [β-thujaplicinol],Antiviral activity,[7],neither of these compounds has antiviral activity
